Test results taken from PubChem BioAssay (NCI).
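Following 48 hours of exposure in 96-well plates, responses at five concentrations were used to interpolate endpoints linearly. At the GI50, growth is halved. At the TGI there is no net growth.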

How the values were obtained:
Experiment in all cases: inhibition of tumour cell growth, NCI panel, 48 h
[1] = tested on: HCT-15 colon
[2] = tested on: HS 578T breast
[3] = tested on: MCF7 breast
[4] = tested on: MDA-MB-231 breast
[5] = tested on: MOLT-4 leukemia
[6] = tested on: NCI-H460 lung
[7] = tested on: OVCAR-8 ovarian
[8] = tested on: SN12C renal
[9] = tested on: UACC-62 melanoma
[10] = tested on: KM12 colon

Structure (SMILES)	GI50 [1] [µM]	TGI [1] [µM]	GI50 [2] [µM]	GI50 [3] [µM]	TGI [3] [µM]	GI50 [4] [µM]	TGI [4] [µM]	GI50 [5] [µM]	TGI [5] [µM]	GI50 [6] [µM]	TGI [6] [µM]	GI50 [7] [µM]	TGI [7] [µM]	GI50 [8] [µM]	TGI [8] [µM]	GI50 [9] [µM]	TGI [9] [µM]	TGI [10] [µM]	TGI [2] [µM]	GI50 [10] [µM]
C[C@]12CCc3nc(Nc4cccc(O)c4)sc3C1=CC[C@@H]1[C@@H]2CC[C@]2(C)/C(=N\NC(N)=S)CC[C@@H]12	1.15	2.64	0.843	1.52	3.13	1.75	4.95	0.765	6.9	1.96	4.05	2.57	10.9	1.98	5.31	2.01	4.46			
Cc1cc([N+](=O)[O-])ccc1NC(=O)C(=O)C(C(=O)c1ccccc1-c1ccccc1)C1OC(=O)c2ccccc21 (centres undefined)		36.8							72.2		38.2		77.1		37.4		13.5	32.5		
O=C1/C(=C\c2ccc(F)cc2)CN(C(=O)c2ccccc2)C/C1=C\c1ccc(F)cc1	1.5	3.53		0.841	4.31	2.27	6.39	2.56	72.5			2.82	17.5	3.02	12.1	1.84	4.83			
COc1c(C)cc(O)cc1C=O		> 100							> 100		> 100		> 100		> 100		> 100	> 100		
O=C1c2[nH]cc(CNC3CN4CCC3CC4)c2C(=O)c2c1c(O)c1ccccc1c2O (centres undefined)	3.62	8.55	26.6			1.41	3.09		1.72			17.6	> 100	1.06	15.5	14.9	37.6	2.32	77.5	0.672
CC(=O)Nc1ccccc1-c1nc2ccccc2nc1C		> 100							> 100		> 100		> 100		> 100		> 100	> 100		
COC(=O)C1=Cc2cc(OC)c(OC)c(OC)c2[C@H](c2cc(OC)c(OC)c(OC)c2)C1C(=O)OC (some centres undefined)		> 100							> 100		> 100		> 100		> 100		> 100	> 100		
COc1cccc2ccc(C(=O)c3ccccc3)nc12		> 100							> 100				> 100		> 100		> 100	> 100		
O=C1CC(c2c(-c3ccccc3)[nH]c3ccccc23)C(=O)N1 (centres undefined)		> 100							> 100		> 100		> 100				> 100	> 100		
COc1ccc(OC(C)=O)c2c1CCC=CC2=O		30.1							33.1		34.7		31.4		31		26.2	12.6		
COC1OC(CO)C(O)C(OC(C)=O)C1NC(=O)N(CCCl)N=O (centres undefined)									> 100		> 100		> 100		> 100		> 100	> 100		
